Laboratory results from patent publication US9512120B2, “Microbicidally active imidazopyridine derivatives” (Syngenta Participations AG, priority 2013, dated 2016).

Key:
[1] = tested on: Blumeria graminis f. Sp. Tritici (Erysiphe graminis f. Sp. Tritici); experiment: Blumeria graminis f. sp. tritici / wheat / leaf disc preventative (powdery mildew on wheat); type: in vivo; conditions: foliar, wheat leaf segments cv. Kanzler, inoculated 1 day after application, assessed 6-8 days after application, read-out: control of Blumeria graminis (percent disease control compared to untreated)
Experimental: Blumeria graminis f. Sp. Tritici (Erysiphe graminis f. Sp. Tritici)/Wheat/Leaf Disc Preventative (Powdery Mildew on Wheat):
Wheat leaf segments cv. Kanzler were placed on agar in a 24-well plate and sprayed with the formulated test compound diluted in water at an application rate of 200 ppm. The leaf disks were inoculated by shaking powdery mildew infected plants above the test plates 1 day after application. The inoculated leaf disks were incubated at 20° C. and 60% relative humidity under a light regime of 24 h darkness followed by 12 h/12 h (dark/light) in a climate chamber and the activity of a compound was assessed as percent disease control compared to untreated when an appropriate level of disease damage appears on untreated check leaf segments (6-8 days after application). The following compounds gave at least 80% control of Blumeria graminis at 200 ppm when compared to untreated control leaf disks under the same conditions, which show extensive disease development: 2, 13, 23, 50, 59, 61, 67, 75, 85, 86, 89, 90, 93, 102, 103, 107, 134, 136, 137, 138, 139, 141, 145, 151, 153, 154, 163, 173, 174

[2] = tested on: Gaeumannomyces graminis; experiment: Gaeumannomyces graminis / liquid culture (take-all of cereals); type: cell-based; conditions: PDB, 24° C., 4-5 days after application, read-out: control of Gaeumannomyces graminis (inhibition of growth, photometric)
Summary of the method: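 Mycelial fragments in potato dextrose broth were exposed to compound from DMSO at 200 ppm in microtiter plates. Incubation at 24 °C; growth inhibition read photometrically 4-5 days after application.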

[3] = tested on: Thanatephorus cucumeris (Rhizoctonia solani); experiment: Thanatephorus cucumeris (Rhizoctonia solani) / liquid culture (foot rot, damping-off); type: cell-based; conditions: PDB, 24° C., 3-4 days after application, read-out: control of Thanatephorus cucumeris (inhibition of growth, photometric)
Summary of the method: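 Mycelial fragments in potato dextrose broth exposed to test compounds at 200 ppm (from DMSO solution), incubated at 24° C. Growth inhibition read photometrically 3-4 days after application.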

[4] = tested on: Botryotinia fuckeliana (Botrytis cinerea); experiment: Botryotinia fuckeliana (Botrytis cinerea) / liquid culture (gray mould); type: cell-based; conditions: Vogels broth, 24° C., 3-4 days after application, read-out: control of Botryotinia fuckeliana (inhibition of growth, photometric)
Summary of the method: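 Botrytis cinerea conidia in Vogels broth were added to test compound applied from DMSO at 200 ppm. Incubation at 24 °C; growth inhibition read photometrically 3-4 days after application.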

[5] = tested on: Glomerella lagenarium (Colletotrichum lagenarium); experiment: Glomerella lagenarium (Colletotrichum lagenarium) / liquid culture (anthracnose); type: cell-based; conditions: Colletotrichum orbiculare, PDB, 24° C., 3-4 days after application, read-out: control of Glomerella lagenarium (inhibition of growth, photometric)
Summary of the method: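 Cryopreserved conidia suspended in potato dextrose broth were added to compound in DMSO applied at 200 ppm. Plates incubated at 24° C; growth inhibition read photometrically 3-4 days after application.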

[6] = tested on: Mycosphaerella graminicola (Septoria tritici); experiment: Mycosphaerella graminicola (Septoria tritici) / liquid culture (Septoria blotch); type: cell-based; conditions: Zymoseptoria tritici, PDB, 24° C., 4-5 days after application, read-out: control of Mycosphaerella graminicola (inhibition of growth, photometric)
Summary of the method: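 Cryo-stored conidia in potato dextrose broth were added to compound in DMSO at 200 ppm in microtiter plates. Plates were incubated at 24 °C and growth inhibition was measured photometrically 4–5 days after application.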

[7] = tested on: Pyrenophora teres; experiment: Pyrenophora teres / barley / leaf disc preventative (net blotch); type: in vivo; conditions: foliar, barley leaf segments cv Hasso, inoculated two days after application, assessed 5-7 days after application, read-out: control of Pyrenophora teres (disease control compared to untreated)
Summary of the method: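 Barley cv Hasso leaf segments on agar sprayed with compound at 200 ppm, inoculated with spores two days later. Kept at 20 °C, 65% RH, 12/12 h light; disease control versus untreated scored 5-7 days after application.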

[8] = tested on: Mycosphaerella arachidis (Cercospora arachidicola); experiment: Mycosphaerella arachidis (Cercospora arachidicola) / liquid culture (early leaf spot); type: cell-based; conditions: PDB, 24° C., 4-5 days after application, read-out: control of Mycosphaerella arachidis (inhibition of growth, photometric)
Experimental: Mycosphaerella Arachidis (Cercospora arachidicola)/Liquid Culture (Early Leaf Spot): Conidia of the fungus from cryogenic storage were directly mixed into nutrient broth (PDB potato dextrose broth). After placing a DMSO solution of test compound into a 96-well microtiter plate at an application rate of 200 ppm, the nutrient broth containing the fungal spores was added. The test plates are incubated at 24° C. and the inhibition of growth was determined photometrically 4-5 days after application.

[9] = tested on: Plasmopara viticola; experiment: Plasmopara viticola / grape / leaf disc preventative; type: in vivo; conditions: foliar, grape vine leaf disks, inoculated 1 day after application, assessed 6-8 days after application, read-out: control of Plasmopara viticola (percent disease control compared to untreated)
[10] = tested on: Puccinia recondita f. sp. Tritici; experiment: Puccinia recondita f. sp. tritici / wheat / leaf disc preventative (brown rust); type: in vivo; conditions: foliar, wheat leaf segments cv Kanzler, inoculated 1 day after application, assessed 7-9 days after application, read-out: control of Puccinia recondita f. sp. Tritici (percent disease control compared to untreated)
Summary of the method: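 Leaf segments of wheat cv Kanzler on agar were sprayed with formulated compound at 200 ppm and inoculated with spores 1 day later. Incubation was at 19° C, 75% relative humidity and 12/12 h light/dark. Activity was scored 7-9 days after application as percent disease control versus untreated.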

[11] = tested on: Phaeosphaeria nodorum (Septoria nodorum); experiment: Phaeosphaeria nodorum (Septoria nodorum) / wheat / leaf disc preventative (glume blotch); type: in vivo; conditions: Parastagonospora nodorum, foliar, wheat leaf segments cv Kanzler, inoculated 2 days after application, assessed 5-7 days after application, read-out: control of Phaeosphaeria nodorum (percent disease control compared to untreated)
Summary of the method: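 Wheat leaf segments (cv Kanzler) on agar sprayed with compound at 200 ppm, inoculated with spores 2 days later. Incubated at 20° C., 75% relative humidity, 12/12 h light/dark; percent disease control versus untreated scored 5-7 days after application.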

[12] = tested on: Sclerotinia sclerotiorum; experiment: Sclerotinia sclerotiorum liquid culture (cottony rot / white mold); type: cell-based; conditions: PDB, 24° C., 3-4 days after application, read-out: control of Sclerotinia sclerotiorum (inhibition of growth, photometric)
Summary of the method: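 Mycelia fragments of Sclerotinia sclerotiorum in potato dextrose broth were added to compound in DMSO. Cultures incubated at 24° C; growth inhibition determined photometrically 3-4 days after application.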

[13] = tested on: Monographella nivalis (Microdochium nivale); experiment: Monographella nivalis (Microdochium nivale) / liquid culture (foot rot cereals); type: cell-based; conditions: PDB, 24° C., 4-5 days after application, read-out: control of Monographella nivalis (inhibition of growth, photometric)
Summary of the method: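 Cryostored conidia in potato dextrose broth were added to test compound dispensed from DMSO at 200 ppm. Plates were kept at 24° C, and growth inhibition was read photometrically 4-5 days after application.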

Row | SMILES | melting point | pest or weed control at 200 ppm [1] | inhibition at 20 ppm [2] | inhibition at 20 ppm [3] | inhibition at 20 ppm [4] | inhibition at 20 ppm [5] | inhibition at 20 ppm [6] | pest or weed control at 200 ppm [7] | inhibition at 20 ppm [8] | pest or weed control at 200 ppm [9] | pest or weed control at 200 ppm [10] | pest or weed control at 200 ppm [11] | inhibition at 20 ppm [12] | inhibition at 20 ppm [13]
1 | CCn1c(-n2ncnc2N)nc2cncc(C(C)=NOCC=C(Cl)Cl)c21 [Compound 155] |  |  |  | ≥ 80% | ≥ 80% | ≥ 80% | ≥ 80% | ≥ 80% | ≥ 80% | ≥ 80% | ≥ 80% | ≥ 80% | ≥ 80% | ≥ 80%
2 | CCn1c(-n2ncnc2N)nc2cncc(/C(C)=N\OCC(C)C)c21 [Compound 161] |  |  |  | ≥ 80% | ≥ 80% | ≥ 80% | ≥ 80% | ≥ 80% | ≥ 80% | ≥ 80% | ≥ 80% |  | ≥ 80% | 
3 | CCn1c(-n2ncnc2N)nc2cncc(-c3ccc(C)cc3C)c21 [Compound 45, 2-[7-(2,4-dimethylphenyl)-1-ethylimidazo[4,5-c]pyridin-2-yl]-1,2,4-triazol-3-amine] |  |  |  | ≥ 80% | ≥ 80% |  | ≥ 80% | ≥ 80% | ≥ 80% | ≥ 80% | ≥ 80% | ≥ 80% |  | 
4 | CCn1c(-n2ncnc2N)nc2cncc(C3CC(c4ccccc4)=NO3)c21 (stereo not drawn) [Compound 109, 2-[1-ethyl-7-(3-phenyl-4,5-dihydro-1,2-oxazol-5-yl)imidazo[4,5-c]pyridin-2-yl]-1,2,4-triazol-3-amine] | 201 to 209 °C |  | ≥ 80% | ≥ 80% | ≥ 80% |  | ≥ 80% | ≥ 80% |  | ≥ 80% | ≥ 80% |  |  | 
5 | CCn1c(-n2ncnc2N)nc2cncc(-c3cccc4c3OC(F)(F)O4)c21 [Compound 48, 2-[7-(2,2-difluoro-1,3-benzodioxol-4-yl)-1-ethylimidazo[4,5-c]pyridin-2-yl]-1,2,4-triazol-3-amine] |  |  | ≥ 80% | ≥ 80% | ≥ 80% | ≥ 80% | ≥ 80% | ≥ 80% | ≥ 80% | ≥ 80% | ≥ 80% | ≥ 80% | ≥ 80% | ≥ 80%
6 | CCn1c(-n2ncnc2N)nc2cncc(C(C)=NOCc3ccccc3Cl)c21 [Compound 144] |  |  |  | ≥ 80% | ≥ 80% | ≥ 80% | ≥ 80% | ≥ 80% |  | ≥ 80% | ≥ 80% | ≥ 80% | ≥ 80% | ≥ 80%
7 | CCn1c(-n2ncnc2N)nc2cncc(-c3cncnc3)c21 [Compound 50, 2-(1-ethyl-7-pyrimidin-5-ylimidazo[4,5-c]pyridin-2-yl)-1,2,4-triazol-3-amine] |  | ≥ 80% |  |  |  |  |  |  |  |  |  |  |  | 

Second part, led by results:

Row | melting point | SMILES | pest or weed control at 200 ppm [1] | inhibition at 20 ppm [2] | inhibition at 20 ppm [3] | inhibition at 20 ppm [4] | inhibition at 20 ppm [5] | inhibition at 20 ppm [6] | pest or weed control at 200 ppm [7] | inhibition at 20 ppm [8] | pest or weed control at 200 ppm [9] | pest or weed control at 200 ppm [10] | pest or weed control at 200 ppm [11] | inhibition at 20 ppm [12] | inhibition at 20 ppm [13]
8 | 183 to 186 °C | CCn1c(-n2ncnc2N)nc2cncc(C3=CCN(C(=O)OC(C)(C)C)CC3)c21 [Compound 107, tert-butyl 4-[2-(5-amino-1,2,4-triazol-1-yl)-1-ethylimidazo[4,5-c]pyridin-7-yl]-3,6-dihydro-2H-pyridine-1-carboxylate] | ≥ 80% |  |  |  |  |  |  |  |  |  |  |  | 
9 | 151 to 163 °C | CCn1c(-n2ncnc2N)nc2cncc(C(C)=NOCC3CC3)c21 [Compound 141] | ≥ 80% | ≥ 80% | ≥ 80% | ≥ 80% | ≥ 80% | ≥ 80% | ≥ 80% | ≥ 80% |  |  |  |  | 
10 | 175 to 187 °C | CCn1c(-n2ncnc2N)nc2cncc(C(C)=NOCc3ccc(F)cc3)c21 [Compound 135] |  | ≥ 80% | ≥ 80% | ≥ 80% |  | ≥ 80% | ≥ 80% |  | ≥ 80% | ≥ 80% |  |  | 
11 | 142 to 146 °C | C=CCON=C(C)c1cncc2nc(-n3ncnc3N)n(CC)c12 [Compound 138] | ≥ 80% | ≥ 80% | ≥ 80% | ≥ 80% | ≥ 80% | ≥ 80% | ≥ 80% |  |  |  |  |  | ≥ 80%
12 | 160 to 165 °C | CCON=C(C)c1cncc2nc(-n3ncnc3N)n(CC)c12 [Compound 134] | ≥ 80% | ≥ 80% | ≥ 80% | ≥ 80% |  | ≥ 80% | ≥ 80% | ≥ 80% |  | ≥ 80% |  |  | ≥ 80%
13 | 228 to 240 °C | CCn1c(-n2ncnc2N)nc2cncc(C(C)=NO)c21 [Compound 136, 1-[2-(5-amino-1,2,4-triazol-1-yl)-1-ethyl-imidazo[4,5-c]pyridin-7-yl]ethanone oxime] | ≥ 80% | ≥ 80% |  |  | ≥ 80% |  | ≥ 80% |  |  |  |  |  | 
